Our source for the relative viability values is the supplement of paper PMC10307832.

Holding throughout (assay): relative viability (nuclei count vs DMSO), 5 days (fraction); higher = more cells survive
Compound in assay [1]: C(C(=O)C(=O)O)Br [Bromopyruvate] + N=C(N)NC(=N)NCCc1ccccc1 [Phenformin] (partner 250 µM)
In a few lines: (§1)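 Lung cancer cell lines in 1536-well plates got either a single drug or a fixed anchor-drug dose together with five library-drug doses (not always all listed) in √10 steps, by pin tool, on the day after seeding. Nuclei were counted after 5 days, and relative viability is the treated-to-vehicle ratio of nuclei counts. Values are medians of duplicate plates.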

Compound in the assay “Bicalutamide + Foretinib”: CC(O)(CS(=O)(=O)c1ccc(F)cc1)C(=O)Nc1ccc(C#N)c(C(F)(F)F)c1 [Bicalutamide] + COc1cc2c(Oc3ccc(NC(=O)C4(C(=O)Nc5ccc(F)cc5)CC4)cc3F)ccnc2cc1OCCCN1CCOCC1 [Foretinib] (partner 0.25 µM)
The method in brief: as §1

Compound in assay [2]: C(C(=O)C(=O)O)Br [Bromopyruvate] + CC(C)C[C@H](NC(=O)[C@H](Cc1ccccc1)NC(=O)c1cnccn1)B(O)O [Bortezomib] (partner 0.002 µM)
The method in brief: as §1

Compound in the assay “Bromopyruvate + OSI-027”: C(C(=O)C(=O)O)Br [Bromopyruvate] + COc1cccc2cc(-c3nc([C@H]4CC[C@H](C(=O)O)CC4)n4ncnc(N)c34)[nH]c12 [OSI-027] (partner 0.5 µM)
In a few lines:
as §1

As to UMC-11, the relative viability in assay [1] (first compound 1 µM) came to 0.343; in assay [1] (first compound 3.162 µM), 0.328; in assay [1] (first compound 10 µM) it was 0.314; in assay [1] (first compound 31.62 µM) it was 0.329; in assay [1] (first compound 100 µM), 0.292; with Bicalutamide + Foretinib (first compound 0.08 µM), 1.11. The relative viability was determined as 0.966 with Bicalutamide + Foretinib (first compound 0.253 µM); 1.08 with Bicalutamide + Foretinib (first compound 0.8 µM); 1.05 with Bicalutamide + Foretinib (first compound 2.53 µM); 0.817 in assay [2] (first compound 1 µM); 0.79 in assay [2] (first compound 3.162 µM); 0.846 in assay [2] (first compound 10 µM). Moreover, the relative viability in assay [2] (first compound 31.62 µM) came to 0.645; in assay [2] (first compound 100 µM), 0.721; in the assay with Bromopyruvate + OSI-027 (first compound 1 µM), 0.518; with Bromopyruvate + OSI-027 (first compound 3.162 µM), 0.452; with Bromopyruvate + OSI-027 (first compound 10 µM), 0.491; with Bromopyruvate + OSI-027 (first compound 31.62 µM) it was 0.533. Moreover, in the assay with Bromopyruvate + OSI-027 (first compound 100 µM), the relative viability was 0.501.
